# Assay results: US20260062387A1, “SALT-INDUCIBLE KINASE INHIBITOR COMPOUND AND PHARMACEUTICAL COMPOSITION INCLUDING THE SAME” (MITSUBISHI TANABE PHARMA CORPORATION, priority 2023, published 2026)
# pIC50: −log10 of the molar value.
# Assays:
# Format in all cases: biochemical
# GST-tagged SIK1 = GST-tagged SIK1 (Homo sapiens (Human), UniProt P57059); assay: SIK1 inhibition test (ADP-Glo Max Assay); details: enzyme 20 nM, AMARA Peptide 200 μM, ATP 1 mM, 2 hours room temperature
# Procedure: (§1) The compounds described in Examples above were used in the SIK1, SIK2, and SIK3 inhibition test.
# (§2) The inhibitory activity of the compound for SIK1, SIK2, and SIK3 enzymes was assayed by measuring the amount of ADP, an enzyme reaction product, with ADP-Glo™ Max Assay (Promega). Enzymes, specifically, GST-tagged SIK1 (Carna Biosciences, Inc.), GST-tagged SIK2 (Carna Biosciences, Inc.), and GST-tagged SIK3 (SignalChem) were prepared in a reaction buffer (15 mM tris-hydrochloric acid buffer (pH 7.5), 0.001% Triton X-100, 0.01% BSA) so that the final concentration would be 20 nM, 3 nM, and 100 nM. Enzyme solutions were thus formed. In a reaction buffer, AMARA Peptide (SignalChem) as a substrate with a final concentration of 200 μM (SIK1, SIK2) or 100 μM (SIK3), ATP (Promega) with a final concentration of 1 mM, and magnesium chloride with a final concentration of 5 mM were prepared. Substrate solutions were thus formed. The enzyme solution, the substrate solution, and a DMSO solution of a concentration of the test compound were mixed together and reacted at room temperature for 2 hours. After the reaction, ADP-Glo™ Reagent (Promega) was added, and the reaction was performed at room temperature for 30 minutes. Subsequently, ADP-Glo™ Max Detection Reagent (Promega) was added, and the reaction was performed at room temperature for 30 minutes. The emission by the luciferase reaction was measured with PHERAstar FSX (BMG LABTECH).
# (§3) The inhibitory ratio (%) was calculated by: % Inhibition={1−(intensity of sample−intensity of blank (no enzyme solution added))/(intensity of control (DMSO alone)−intensity of blank)}×100. The inhibitory concentration IC50 was calculated based on 16 data values obtained in the concentration response test.
# GST-tagged SIK2 = GST-tagged SIK2 (Homo sapiens (Human), UniProt Q9H0K1); assay: SIK2 inhibition test (ADP-Glo Max Assay); details: enzyme 3 nM, AMARA Peptide 200 μM, ATP 1 mM, 2 hours room temperature
# Chain of GST-tagged SIK2 (Q9H0K1 whole entry): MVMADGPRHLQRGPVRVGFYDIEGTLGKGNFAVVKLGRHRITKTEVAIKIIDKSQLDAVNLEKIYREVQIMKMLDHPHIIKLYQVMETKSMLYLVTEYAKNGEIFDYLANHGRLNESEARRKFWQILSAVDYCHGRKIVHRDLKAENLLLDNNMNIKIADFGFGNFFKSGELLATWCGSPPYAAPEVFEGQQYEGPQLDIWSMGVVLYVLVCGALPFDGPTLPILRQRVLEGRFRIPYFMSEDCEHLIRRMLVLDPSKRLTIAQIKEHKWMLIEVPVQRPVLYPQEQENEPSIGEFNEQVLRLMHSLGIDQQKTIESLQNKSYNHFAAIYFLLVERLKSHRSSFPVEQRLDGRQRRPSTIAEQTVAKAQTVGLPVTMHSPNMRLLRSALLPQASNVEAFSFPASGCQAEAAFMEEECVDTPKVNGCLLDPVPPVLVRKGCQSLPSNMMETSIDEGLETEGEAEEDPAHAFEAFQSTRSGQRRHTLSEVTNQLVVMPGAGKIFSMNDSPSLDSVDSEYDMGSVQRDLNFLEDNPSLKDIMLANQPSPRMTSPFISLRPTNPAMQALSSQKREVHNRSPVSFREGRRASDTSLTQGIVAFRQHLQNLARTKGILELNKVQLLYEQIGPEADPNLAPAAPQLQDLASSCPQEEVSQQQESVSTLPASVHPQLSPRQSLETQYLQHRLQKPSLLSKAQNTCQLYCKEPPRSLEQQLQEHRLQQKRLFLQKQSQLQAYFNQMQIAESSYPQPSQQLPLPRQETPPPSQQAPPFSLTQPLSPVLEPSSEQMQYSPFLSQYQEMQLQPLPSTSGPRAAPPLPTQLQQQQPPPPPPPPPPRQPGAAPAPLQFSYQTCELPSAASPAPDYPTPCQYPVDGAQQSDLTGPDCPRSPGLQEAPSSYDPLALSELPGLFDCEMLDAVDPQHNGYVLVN
# Procedure: as §1, §2, §3
# GST-tagged SIK3 = GST-tagged SIK3 (Homo sapiens (Human), UniProt Q9Y2K2); assay: SIK3 inhibition test (ADP-Glo Max Assay); details: enzyme 100 nM, AMARA Peptide 100 μM, ATP 1 mM, 2 hours room temperature
# Chain of GST-tagged SIK3 (Q9Y2K2 whole entry): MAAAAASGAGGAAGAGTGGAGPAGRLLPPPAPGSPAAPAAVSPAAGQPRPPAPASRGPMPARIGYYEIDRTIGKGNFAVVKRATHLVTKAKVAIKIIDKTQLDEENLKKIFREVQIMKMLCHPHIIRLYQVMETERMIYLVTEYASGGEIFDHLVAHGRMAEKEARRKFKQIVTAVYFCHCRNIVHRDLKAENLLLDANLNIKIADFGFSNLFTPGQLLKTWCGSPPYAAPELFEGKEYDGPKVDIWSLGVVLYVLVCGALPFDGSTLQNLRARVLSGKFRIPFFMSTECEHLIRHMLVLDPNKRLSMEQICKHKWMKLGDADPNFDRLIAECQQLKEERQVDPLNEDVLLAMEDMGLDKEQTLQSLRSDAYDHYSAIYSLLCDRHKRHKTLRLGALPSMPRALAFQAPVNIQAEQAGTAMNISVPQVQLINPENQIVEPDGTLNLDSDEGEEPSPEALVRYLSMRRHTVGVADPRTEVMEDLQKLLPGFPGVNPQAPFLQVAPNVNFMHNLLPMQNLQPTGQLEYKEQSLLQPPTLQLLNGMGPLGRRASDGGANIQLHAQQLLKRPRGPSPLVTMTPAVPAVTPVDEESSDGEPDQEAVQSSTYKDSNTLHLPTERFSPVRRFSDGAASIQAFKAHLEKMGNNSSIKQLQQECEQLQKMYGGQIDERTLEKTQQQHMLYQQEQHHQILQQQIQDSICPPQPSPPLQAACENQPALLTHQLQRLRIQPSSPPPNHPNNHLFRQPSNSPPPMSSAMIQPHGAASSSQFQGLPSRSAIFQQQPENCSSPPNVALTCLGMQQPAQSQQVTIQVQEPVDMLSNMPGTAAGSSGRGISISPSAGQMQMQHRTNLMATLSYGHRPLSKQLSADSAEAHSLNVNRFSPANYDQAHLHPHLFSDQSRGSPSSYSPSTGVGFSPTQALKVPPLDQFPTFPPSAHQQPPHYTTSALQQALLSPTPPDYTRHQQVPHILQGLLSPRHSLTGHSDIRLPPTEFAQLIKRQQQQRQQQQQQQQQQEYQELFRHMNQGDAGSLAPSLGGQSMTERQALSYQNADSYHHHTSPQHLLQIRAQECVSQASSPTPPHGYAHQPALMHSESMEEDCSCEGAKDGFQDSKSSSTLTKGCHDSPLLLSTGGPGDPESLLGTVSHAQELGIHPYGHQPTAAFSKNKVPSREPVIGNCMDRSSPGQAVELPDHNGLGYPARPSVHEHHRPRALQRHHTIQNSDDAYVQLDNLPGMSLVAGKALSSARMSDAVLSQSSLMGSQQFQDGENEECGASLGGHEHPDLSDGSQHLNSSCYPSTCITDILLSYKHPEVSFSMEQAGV
# Procedure: as §1, §2, §3
# Chain of GST-tagged SIK1 (P57059 whole entry): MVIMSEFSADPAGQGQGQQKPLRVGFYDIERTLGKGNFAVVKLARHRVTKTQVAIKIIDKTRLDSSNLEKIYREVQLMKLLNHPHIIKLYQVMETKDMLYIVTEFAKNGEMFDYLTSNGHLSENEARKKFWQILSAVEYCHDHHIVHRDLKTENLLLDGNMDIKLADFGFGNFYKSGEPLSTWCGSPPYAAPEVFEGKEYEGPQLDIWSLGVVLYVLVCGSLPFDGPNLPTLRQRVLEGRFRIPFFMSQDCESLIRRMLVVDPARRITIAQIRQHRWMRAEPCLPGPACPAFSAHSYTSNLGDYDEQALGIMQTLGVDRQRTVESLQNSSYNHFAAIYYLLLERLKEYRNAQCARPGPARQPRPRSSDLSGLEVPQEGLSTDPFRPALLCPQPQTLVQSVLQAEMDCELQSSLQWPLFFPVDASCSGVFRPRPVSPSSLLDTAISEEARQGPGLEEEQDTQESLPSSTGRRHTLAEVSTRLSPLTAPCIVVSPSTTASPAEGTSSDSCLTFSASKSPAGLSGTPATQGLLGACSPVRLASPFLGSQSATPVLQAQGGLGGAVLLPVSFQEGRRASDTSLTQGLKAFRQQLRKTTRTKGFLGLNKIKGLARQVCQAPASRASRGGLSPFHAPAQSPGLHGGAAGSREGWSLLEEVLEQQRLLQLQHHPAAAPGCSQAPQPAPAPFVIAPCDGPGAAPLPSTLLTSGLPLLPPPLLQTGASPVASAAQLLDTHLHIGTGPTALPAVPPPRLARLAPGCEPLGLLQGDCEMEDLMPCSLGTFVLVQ
Compound,pIC50 (GST-tagged SIK1),pIC50 (GST-tagged SIK2),pIC50 (GST-tagged SIK3)
"COc1cc(-c2c3c(C#N)cc(-c4cnn(C)c4)cc3nn2C)cc(OC(F)F)c1C(=O)NC[C@@H]1CC1(F)F (single isomer, unassigned) [Example 46]",7.83,8.28,8.14
"COc1cc(-c2c3c(C#N)cc(-c4cnn(CCN5CCOCC5)c4)cc3nn2C)cc(OC(F)F)c1C(=O)NC[C@@H]1CC1(F)F (single isomer, unassigned) [Example 85]",8.00,8.15,8.07
"COc1cc(-c2c3c(C#N)cc(-c4cnn(CC(C)(C)O)c4)cc3nn2C)cc(OC(F)F)c1C(=O)NC[C@@H]1CC1(F)F (single isomer, unassigned) [Example 86]",7.86,7.88,7.71
"COc1cc(-c2c3c(C#N)cc(-c4cnn(C)c4)cc3nn2C)cc2c1C(=O)NC[C@@H]2C (single isomer, unassigned) [Example 88]",8.13,8.35,8.28
"COc1cc(-c2c3c(C#N)cc(-c4cnn(C[C@H](C)O)c4)cc3nn2C)cc(OC(F)F)c1C(=O)NC[C@@H]1CC1(F)F (single isomer, unassigned) [Example 95, 4-[4-cyano-6-[1-[(2S)-2-hydroxypropyl]pyrazol-4-yl]-2-methylindazol-3-yl]-N-[[(1R*)-2,2-difluorocyclopropyl]methyl]-2-(difluoromethoxy)-6-methoxybenzamide]",7.80,7.88,8.24
"CCn1cc(-c2cc(C#N)c3c(-c4cc(OC)c5c(c4)[C@@H](C)CNC5=O)n(C)nc3c2)cn1 (single isomer, unassigned) [Example 105]",8.00,8.47,8.09
"COc1cc(-c2c3c(C#N)cc(-c4cnn(CC(F)F)c4)cc3nn2C)cc2c1C(=O)NC[C@@H]2C (single isomer, unassigned) [Example 107]",8.08,8.40,8.10
"COc1cc(-c2c3c(C#N)cc(-c4cnn(CC(F)(F)F)c4)cc3nn2C)cc2c1C(=O)NC[C@@H]2C (single isomer, unassigned) [Example 126]",8.14,8.82,8.29
"COCCn1cc(-c2cc(C#N)c3c(-c4cc(OC)c5c(c4)[C@@H](C)CNC5=O)n(C)nc3c2)cn1 (single isomer, unassigned) [Example 127]",8.16,8.89,8.12
"COc1cc(-c2c3c(C#N)cc(-c4cnn(C(F)F)c4)cc3nn2C)cc2c1C(=O)NC[C@@H]2C (single isomer, unassigned) [Example 128]",8.09,9.00,8.18
"CCOc1cc(-c2cnn(C)c2)cc2nn(C)c(-c3cc(OC)c4c(c3)[C@@H](C)CNC4=O)c12 (single isomer, unassigned) [Example 163]",8.29,8.85,7.94
"COc1cc(-c2c3c(OC(F)F)cc(-c4cnn(C)c4)cc3nn2C)cc2c1C(=O)NC[C@@H]2C (single isomer, unassigned) [Example 164]",8.15,8.70,7.71
"COc1cc(-c2cnn(C)c2)cc2nn(C)c(-c3cc(OC(F)F)c4c(c3)[C@@H](C)CNC4=O)c12 (single isomer, unassigned) [Example 165]",8.28,8.82,8.17
"COc1cc(-c2cnn(C)c2)cc2nn(C)c(-c3cc(OC(F)F)c4c(c3)[C@@H](C)CNC4=O)c12 (single isomer, unassigned) [Example 166]",7.92,8.51,8.02
"COc1cc(-c2c3c(C#N)cc(-c4cnn(C(C)C)c4)cc3nn2C)cc2c1C(=O)NC[C@@H]2C (single isomer, unassigned) [Example 167]",8.07,8.77,8.39
"CCCCn1cc(-c2cc(C#N)c3c(-c4cc(OC)c5c(c4)[C@@H](C)CNC5=O)n(C)nc3c2)cn1 (single isomer, unassigned) [Example 168]",8.17,8.85,8.57
"COc1cc(-c2c3c(C#N)cc(-c4cnn(CC(C)C)c4)cc3nn2C)cc2c1C(=O)NC[C@@H]2C (single isomer, unassigned) [Example 169]",8.09,8.72,8.47

Compound,pIC50 (GST-tagged SIK1),pIC50 (GST-tagged SIK2),pIC50 (GST-tagged SIK3)
"COc1cc(-c2c3c(C#N)cc(-c4cnn(CC5CC5)c4)cc3nn2C)cc2c1C(=O)NC[C@@H]2C (single isomer, unassigned) [Example 170]",8.07,8.77,8.37
"COc1cc(-c2c3c(C#N)cc(-c4cnn(CCC(C)C)c4)cc3nn2C)cc2c1C(=O)NC[C@@H]2C (single isomer, unassigned) [Example 171]",8.04,8.64,8.33
"COCCn1cc(-c2cc(C#N)c3c(-c4cc(OC(F)F)c5c(c4)[C@@H](C)CNC5=O)n(C)nc3c2)cn1 (single isomer, unassigned) [Example 172]",7.71,8.11,8.15
"COCCn1cc(-c2cc(C#N)c3c(-c4cc(OC(F)F)c5c(c4)[C@@H](C)CNC5=O)n(C)nc3c2)cn1 (single isomer, unassigned) [Example 173]",8.12,8.68,8.46
"CCn1cc(-c2cc(C#N)c3c(-c4cc(OC(F)F)c5c(c4)[C@@H](C)CNC5=O)n(C)nc3c2)cn1 (single isomer, unassigned) [Example 174]",8.07,8.64,8.59
"COc1cc(-c2cnn(C[C@H](C)O)c2)cc2nn(C)c(-c3cc(OC(F)F)c4c(c3)[C@@H](C)CNC4=O)c12 (single isomer, unassigned) [Example 175]",8.12,8.54,8.14
"COc1cc(-c2cnn(C[C@H](C)O)c2)cc2nn(C)c(-c3cc(OC(F)F)c4c(c3)[C@@H](C)CNC4=O)c12 (single isomer, unassigned) [Example 176]",7.96,8.23,7.92
"COCCn1cc(-c2cc(OC)c3c(-c4cc(OC(F)F)c5c(c4)[C@@H](C)CNC5=O)n(C)nc3c2)cn1 (single isomer, unassigned) [Example 177]",8.27,8.51,8.00
"COCCn1cc(-c2cc(OC)c3c(-c4cc(OC(F)F)c5c(c4)[C@@H](C)CNC5=O)n(C)nc3c2)cn1 (single isomer, unassigned) [Example 178]",8.00,8.33,7.81
"CCn1cc(-c2cc(OC)c3c(-c4cc(OC(F)F)c5c(c4)[C@@H](C)CNC5=O)n(C)nc3c2)cn1 (single isomer, unassigned) [Example 179]",8.24,8.70,8.21
"CCn1cc(-c2cc(OC)c3c(-c4cc(OC(F)F)c5c(c4)[C@@H](C)CNC5=O)n(C)nc3c2)cn1 (single isomer, unassigned) [Example 180]",7.88,8.29,7.91
"C[C@H]1CNC(=O)c2c(OC(F)F)cc(-c3c4c(C#N)cc(-c5cnn(C)c5)cc4nn3C)cc21 (single isomer, unassigned) [Example 181]",7.71,8.21,8.46
"C[C@H]1CNC(=O)c2c(OC(F)F)cc(-c3c4c(C#N)cc(-c5cnn(C)c5)cc4nn3C)cc21 (single isomer, unassigned) [Example 182]",8.19,8.60,8.70
"COc1cc(-c2c3c(C#N)cc(-c4cnn(CCN5CC(F)(F)C5)c4)cc3nn2C)cc(OC(F)F)c1C(=O)NC[C@@H]1CC1(F)F (stereo in doubt) [Example 108, 4-[4-cyano-6-[1-[2-(3,3-difluoroazetidin-1-yl)ethyl]pyrazol-4-yl]-2-methylindazol-3-yl]-2-(difluoromethoxy)-6-methoxy-N-[[rel-(1R)-2,2-difluorocyclopropyl]methyl]benzamide]",7.77,8.19,8.62
"COc1cc(-n2cnc3cc(-c4cnn(C)c4)ccc32)cc(OC)c1C(=O)NCC(F)F [Comparative Example 2, reference compound]",6.00,7.06,7.40
"COc1cc(-c2cnc3cc(-c4cnn(C)c4)ccn23)cc2c1C(=O)N(C1CC1)CC2 [Comparative Example 3, 2-cyclopropyl-8-methoxy-6-[7-(1-methylpyrazol-4-yl)imidazo[1,2-a]pyridin-3-yl]-3,4-dihydroisoquinolin-1-one, reference compound]",6.40,7.64,8.19
